In brackets after ≈: the same amount, converted by molar mass. Read-outs that look alike come from different tables or passages of the source.
Columns and labels:
Format in all cases: cell-based
[1] = test system: Pseudomonas aeruginosa CNUR 4; assay: MIC test, agar dilution with Steers multiwell inoculator; settings: CNUR4, TSA dishes, 24 h at 35°C, read-out: Minimum Inhibiting Concentration
Description: (§1) As to the antibacterial activity, there was determined the Least (Minimum) Inhibiting Concentration (MIC), by working according to the following operative conditions.
(§2) There were used suspensions of test germs (5 gram-positive and 15 gram-negative) having a known titre, kept freezed at -80°C and diluted, at the time of use, in peptonized water up to a concentration of 1-2.10⁷ cfu/ml.
(§3) A few mg of the products, according to the invention were weighed sufficient for preparing parent solutions in DMSO + NaOH (1N) containing 2560 µg/ml (64µg/ml/dish). From the thus prepared parent solutions there were prepared 12 serial dilutions (1:2) down to the concentration of 1.25 µg/ml.
(§4) 0.5 ml of the different dilutions of each product were distributed on dishes containing 19.5 ml of agarized medium (TSA), maintained in a fluid state at the temperature of 50°C. After slight stirring, the dishes were made to solidify and dry under hood (laminar flow).
(§5) The MIC tests (Least or "Minimum" Inhibiting Concentration) were performed by using a Steers multiwell inoculator having 36 wells, each containing 200 µl of bacterial suspension.
(§6) After inoculation, the dishes were placed into a thermostat and checked after 24 h of incubation at 35°C.
(§7) The MIC is defined as the lowermost product concentration (µg/ml) inhibiting the visible growth of the microorganisms.

[2] = test system: Escherichia coli ISF 432; assay: as above; settings: ISF432, TSA dishes, 24 h at 35°C, read-out: Minimum Inhibiting Concentration
Description: as §1, §2, §3, §4, §5, §6, §7

[3] = test system: Escherichia coli ATCC 8739; assay: as above; settings: ATCC8739, TSA dishes, 24 h at 35°C, read-out: Minimum Inhibiting Concentration
Description: as §1, §2, §3, §4, §5, §6, §7

[4] = test system: Pseudomonas aeruginosa CNUR 2; assay: as above; settings: CNUR2, TSA dishes, 24 h at 35°C, read-out: Minimum Inhibiting Concentration
Description: as §1, §2, §3, §4, §5, §6, §7

[5] = test system: Escherichia coli CNUR 8; assay: as above; settings: CNUR8, TSA dishes, 24 h at 35°C, read-out: Minimum Inhibiting Concentration
Description: as §1, §2, §3, §4, §5, §6, §7

[6] = test system: Staphylococcus epidermidis CPHL A2; assay: as above; settings: CPHLA2, TSA dishes, 24 h at 35°C, read-out: Minimum Inhibiting Concentration
Description: as §1, §2, §3, §4, §5, §6, §7

[7] = test system: Escherichia coli 120; assay: as above; settings: TSA dishes, 24 h at 35°C, read-out: Minimum Inhibiting Concentration
Description: as §1, §2, §3, §4, §5, §6, §7

[8] = test system: Pseudomonas aeruginosa ATCC 9027; assay: as above; settings: ATCC9027, TSA dishes, 24 h at 35°C, read-out: Minimum Inhibiting Concentration
Description: as §1, §2, §3, §4, §5, §6, §7

[9] = test system: Staphylococcus aureus MPR 5; assay: as above; settings: MPR5, TSA dishes, 24 h at 35°C, read-out: Minimum Inhibiting Concentration
Description: as §1, §2, §3, §4, §5, §6, §7

[10] = test system: Escherichia coli CNUR 1; assay: as above; settings: CNUR1, TSA dishes, 24 h at 35°C, read-out: Minimum Inhibiting Concentration
Description: as §1, §2, §3, §4, §5, §6, §7

[11] = test system: Enterobacter cloacae OMNF 1153; assay: as above; settings: OMNF1153, TSA dishes, 24 h at 35°C, read-out: Minimum Inhibiting Concentration
Description: as §1, §2, §3, §4, §5, §6, §7

[12] = test system: Streptococcus facealis LEP Br.; assay: as above; settings: TSA dishes, 24 h at 35°C, read-out: Minimum Inhibiting Concentration
Description: as §1, §2, §3, §4, §5, §6, §7

[13] = test system: Klebsiella pneumoniae ATCC 10031; assay: as above; settings: ATCC10031, TSA dishes, 24 h at 35°C, read-out: Minimum Inhibiting Concentration
Description: as §1, §2, §3, §4, §5, §6, §7

[14] = test system: Shighella enteritidis; assay: as above; settings: TSA dishes, 24 h at 35°C, read-out: Minimum Inhibiting Concentration
Description: as §1, §2, §3, §4, §5, §6, §7

[15] = test system: Enterobacter cloacae OMNF 1174; assay: as above; settings: OMNF1174, TSA dishes, 24 h at 35°C, read-out: Minimum Inhibiting Concentration
Description: as §1, §2, §3, §4, §5, §6, §7

[16] = test system: Providencia stuardii CNUR 5; assay: as above; settings: CNUR5, TSA dishes, 24 h at 35°C, read-out: Minimum Inhibiting Concentration
Description: as §1, §2, §3, §4, §5, §6, §7

[17] = test system: Staphylococcus epidermidis HCF Berset C.; assay: as above; settings: TSA dishes, 24 h at 35°C, read-out: Minimum Inhibiting Concentration
Description: as §1, §2, §3, §4, §5, §6, §7

[18] = test system: Proteus vulgaris CNUR 6; assay: as above; settings: CNUR6, TSA dishes, 24 h at 35°C, read-out: Minimum Inhibiting Concentration
Description: as §1, §2, §3, §4, §5, §6, §7

[19] = test system: Acinebacter calcoloaceticus OSMPV 1130; assay: as above; settings: TSA dishes, 24 h at 35°C, read-out: Minimum Inhibiting Concentration
Description: as §1, §2, §3, §4, §5, §6, §7

[20] = test system: Staphylococcus aureus ATCC 6538; assay: as above; settings: ATCC6538, TSA dishes, 24 h at 35°C, read-out: Minimum Inhibiting Concentration
Description: as §1, §2, §3, §4, §5, §6, §7

[21] = test system: Gram +; assay: MIC test, average over the 5 gram-positive test germs; settings: 24 h
Description: as §1, §2, §3, §4, §5, §6, §7

[22] = test system: Gram -; assay: MIC test, average over the 15 gram-negative test germs; settings: 24 h
Description: as §1, §2, §3, §4, §5, §6, §7

[23] = geometrical average of the MIC over the 15 Gram - strains, read-out: Geometrical Average
[24] = mean log of the MIC over the 15 Gram - strains, read-out: Log (converted)
[25] = geometrical average of the MIC over the 5 Gram + strains, read-out: Geometrical Average

Structure (SMILES) | MIC [1] [µg/mL] | MIC [2] [µg/mL] | MIC [3] [µg/mL] | MIC [4] [µg/mL] | MIC [5] [µg/mL] | MIC [6] [µg/mL] | MIC [7] [µg/mL] | MIC [8] [µg/mL] | MIC [9] [µg/mL] | MIC [10] [µg/mL] | MIC [11] [µg/mL] | MIC [12] [µg/mL] | MIC [13] [µg/mL] | MIC [14] [µg/mL] | MIC [15] [µg/mL] | MIC [16] [µg/mL] | MIC [17] [µg/mL] | MIC [18] [µg/mL] | MIC [19] [µg/mL] | MIC [20] [µg/mL] | other results
CN1CCN(c2cc3c(cc2N)c(=O)c(C(=O)O)cn3C(C)(C)C)CC1 [Compound 44, 6-amino-1-terbutyl-7-(4-methyl-1-piperazinyl)-1,4-dihidro-4-oxo-quinoline carboxylic acid] | 128 (≈ 357 µM) | 0.06 (≈ 0.167 µM) | 0.06 (≈ 0.167 µM) | 32 (≈ 89.3 µM) | 0.5 (≈ 1.39 µM) | 2 (≈ 5.58 µM) | 0.5 (≈ 1.39 µM) | 4 (≈ 11.2 µM) | 2 (≈ 5.58 µM) | 1 (≈ 2.79 µM) | 2 (≈ 5.58 µM) | 32 (≈ 89.3 µM) | 0.06 (≈ 0.167 µM) | 1 (≈ 2.79 µM) | 1 (≈ 2.79 µM) | 4 (≈ 11.2 µM) | 4 (≈ 11.2 µM) | 128 (≈ 357 µM) | 4 (≈ 11.2 µM) | 2 (≈ 5.58 µM) | MIC ([21]; read-out: Log (converted)): 4 µg/mL (≈ 11.2 µM); MIC [22, 23]: 1.73 µg/mL (≈ 4.82 µM); MIC [22, 24]: 1.73 µg/mL (≈ 4.81 µM)
Cc1c(N2CCSCC2)c(N)cc2c(=O)c(C(=O)O)cn(C3CC3)c12 [Compound 35] | 64 (≈ 178 µM) | 0.06 (≈ 0.167 µM) | 0.06 (≈ 0.167 µM) | 8 (≈ 22.3 µM) | 0.25 (≈ 0.696 µM) | 0.5 (≈ 1.39 µM) | 0.25 (≈ 0.696 µM) | 4 (≈ 11.1 µM) | 0.25 (≈ 0.696 µM) | 0.5 (≈ 1.39 µM) | 0.5 (≈ 1.39 µM) | 2 (≈ 5.56 µM) | 0.03 (≈ 0.0835 µM) | 0.5 (≈ 1.39 µM) | 1 (≈ 2.78 µM) | 1 (≈ 2.78 µM) | 1 (≈ 2.78 µM) | 64 (≈ 178 µM) | 1 (≈ 2.78 µM) | 0.25 (≈ 0.696 µM) | MIC [21, 25]: 0.574 µg/mL; MIC ([21]; read-out: Log (converted)): 0.574 µg/mL (≈ 1.6 µM); MIC [22, 23]: 0.863 µg/mL (≈ 2.4 µM); MIC [22, 24]: 0.863 µg/mL (≈ 2.4 µM)
Cc1c(N2CCN(C)CC2)c(N)cc2c(=O)c(C(=O)O)cn(C3CC3)c12 [Compound 33] | 16 (≈ 44.9 µM) | 0.03 (≈ 0.0842 µM) | 0.06 (≈ 0.168 µM) | 8 (≈ 22.4 µM) | 0.06 (≈ 0.168 µM) | 1 (≈ 2.81 µM) | 0.06 (≈ 0.168 µM) | 2 (≈ 5.61 µM) | 1 (≈ 2.81 µM) | 0.06 (≈ 0.168 µM) | 0.25 (≈ 0.701 µM) | 8 (≈ 22.4 µM) | 0.03 (≈ 0.0842 µM) | 0.06 (≈ 0.168 µM) | 0.06 (≈ 0.168 µM) | 2 (≈ 5.61 µM) | 0.5 (≈ 1.4 µM) | 8 (≈ 22.4 µM) | 2 (≈ 5.61 µM) | 0.5 (≈ 1.4 µM) | MIC [21, 25]: 1.15 µg/mL; MIC ([21]; read-out: Log (converted)): 1.15 µg/mL (≈ 3.22 µM); MIC [22, 23]: 0.338 µg/mL (≈ 0.948 µM); MIC [22, 24]: 0.338 µg/mL (≈ 0.948 µM)
